What was measured:
Assay in all cases: relative viability (nuclei count vs DMSO), 5 days (fraction); higher = more cells survive
BEN = tested on: BEN
Outline: (§1)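 Relative viability is defined as nuclei in treated wells over nuclei in vehicle wells. Duplicate plates were run and medians reported. Lung cancer cell lines in 1536-well plates were dosed by pin tool one day after seeding, with one drug or with a fixed anchor-drug dose plus five library-drug doses (not always all listed) in √10 steps, and nuclei were counted after 5 days.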

NCI-H2170 = tested on: NCI-H2170
Outline: as §1

HCC-44 = tested on: HCC-44
Outline: as §1

NCI-H2087 = tested on: NCI-H2087
Outline: as §1

EKVX = tested on: EKVX
Outline: as §1

NCI-H647 = tested on: NCI-H647
Outline: as §1

LOU-NH91 = tested on: LOU-NH91
Outline: as §1

PC-3 [JPC-3] = tested on: PC-3 [JPC-3]
Outline: as §1

201T = tested on: 201T
Outline: as §1

NCI-H650 = tested on: NCI-H650
Outline: as §1

NCI-H1437 = settings: first compound 0.0002 µM
Outline: as §1

**Q.** Which relative viability (BEN; first compound 0.0002 µM) does the source give for `CC(=O)O[C@@]12CO[C@@H]1C[C@H](O)[C@@]1(C)C(=O)[C@H](O)C3=C(C)[C@@H](OC(=O)[C@H](O)[C@@H](NC(=O)OC(C)(C)C)c4ccccc4)C[C@@](O)([C@@H](OC(=O)c4ccccc4)[C@H]21)C3(C)C` [Docetaxel] + Cc1nc(NC(=O)N2CCC[C@H]2C(N)=O)sc1-c1ccnc(C(C)(C)C(F)(F)F)c1 [Alpelisib] (partner 2 µM) here?
**A.** Its relative viability is 0.875.

**Q.** What about the relative viability (BEN; first compound 0.000632 µM) of the same molecule?
**A.** The relative viability was 0.897.

**Q.** What about the relative viability (BEN; first compound 0.002 µM) of the same molecule?
**A.** The relative viability was 0.505.

**Q.** What about the relative viability (BEN; first compound 0.006325 µM) of the same molecule?
**A.** Its relative viability is 0.261.

**Q.** What about the relative viability (BEN; first compound 0.02 µM) of the same molecule?
**A.** Its relative viability is 0.19.

**Q.** What about the relative viability (NCI-H2170; first compound 0.0002 µM) of the same molecule?
**A.** The relative viability was 0.83.

**Q.** And the relative viability (NCI-H2170; first compound 0.000632 µM)?
**A.** The relative viability was 0.632.

**Q.** What about the relative viability (NCI-H2170; first compound 0.002 µM) of the same molecule?
**A.** The relative viability was 0.451.

**Q.** And the relative viability (NCI-H2170; first compound 0.006325 µM)?
**A.** Its relative viability is 0.228.

**Q.** What about the relative viability (NCI-H2170; first compound 0.02 µM) of the same molecule?
**A.** The relative viability was 0.175.

**Q.** What about the relative viability (HCC-44; first compound 0.0002 µM) of the same molecule?
**A.** Its relative viability is 0.758.

**Q.** And the relative viability (HCC-44; first compound 0.000632 µM)?
**A.** The relative viability was 0.711.

**Q.** And the relative viability (HCC-44; first compound 0.002 µM)?
**A.** Its relative viability is 0.609.

**Q.** What about the relative viability (HCC-44; first compound 0.006325 µM) of the same molecule?
**A.** The relative viability was 0.149.

**Q.** And the relative viability (HCC-44; first compound 0.02 µM)?
**A.** Its relative viability is 0.0751.

**Q.** And the relative viability (NCI-H2087; first compound 0.0002 µM)?
**A.** Its relative viability is 0.916.

**Q.** And the relative viability (NCI-H2087; first compound 0.000632 µM)?
**A.** The relative viability was 0.753.

**Q.** What about the relative viability (NCI-H2087; first compound 0.002 µM) of the same molecule?
**A.** Its relative viability is 0.253.

**Q.** What about the relative viability (NCI-H2087; first compound 0.006325 µM) of the same molecule?
**A.** Its relative viability is 0.193.

**Q.** What about the relative viability (NCI-H2087; first compound 0.02 µM) of the same molecule?
**A.** Its relative viability is 0.15.

**Q.** And the relative viability (EKVX; first compound 0.0002 µM)?
**A.** The relative viability was 0.884.

**Q.** And the relative viability (EKVX; first compound 0.000632 µM)?
**A.** Its relative viability is 0.853.

**Q.** What about the relative viability (EKVX; first compound 0.002 µM) of the same molecule?
**A.** Its relative viability is 0.435.

**Q.** What about the relative viability (EKVX; first compound 0.006325 µM) of the same molecule?
**A.** Its relative viability is 0.25.

**Q.** And the relative viability (EKVX; first compound 0.02 µM)?
**A.** Its relative viability is 0.146.

**Q.** What about the relative viability (NCI-H647; first compound 0.0002 µM) of the same molecule?
**A.** Its relative viability is 0.903.

**Q.** What about the relative viability (NCI-H647; first compound 0.000632 µM) of the same molecule?
**A.** Its relative viability is 0.347.

**Q.** What about the relative viability (NCI-H647; first compound 0.002 µM) of the same molecule?
**A.** The relative viability was 0.189.

**Q.** And the relative viability (NCI-H647; first compound 0.006325 µM)?
**A.** The relative viability was 0.0725.

**Q.** What about the relative viability (NCI-H647; first compound 0.02 µM) of the same molecule?
**A.** The relative viability was 0.0507.

**Q.** What about the relative viability (LOU-NH91; first compound 0.0002 µM) of the same molecule?
**A.** The relative viability was 0.73.

**Q.** What about the relative viability (LOU-NH91; first compound 0.000632 µM) of the same molecule?
**A.** Its relative viability is 0.737.

**Q.** What about the relative viability (LOU-NH91; first compound 0.002 µM) of the same molecule?
**A.** Its relative viability is 0.565.

**Q.** And the relative viability (LOU-NH91; first compound 0.006325 µM)?
**A.** The relative viability was 0.394.

**Q.** What about the relative viability (LOU-NH91; first compound 0.02 µM) of the same molecule?
**A.** Its relative viability is 0.368.

**Q.** What about the relative viability (PC-3 [JPC-3]; first compound 0.0002 µM) of the same molecule?
**A.** Its relative viability is 1.02.

**Q.** What about the relative viability (PC-3 [JPC-3]; first compound 0.000632 µM) of the same molecule?
**A.** Its relative viability is 1.07.

**Q.** What about the relative viability (PC-3 [JPC-3]; first compound 0.002 µM) of the same molecule?
**A.** The relative viability was 0.781.

**Q.** What about the relative viability (PC-3 [JPC-3]; first compound 0.006325 µM) of the same molecule?
**A.** The relative viability was 0.279.

**Q.** What about the relative viability (PC-3 [JPC-3]; first compound 0.02 µM) of the same molecule?
**A.** The relative viability was 0.167.

**Q.** What about the relative viability (201T; first compound 0.0002 µM) of the same molecule?
**A.** The relative viability was 1.01.

**Q.** And the relative viability (201T; first compound 0.000632 µM)?
**A.** The relative viability was 1.06.

**Q.** What about the relative viability (201T; first compound 0.002 µM) of the same molecule?
**A.** The relative viability was 0.878.

**Q.** And the relative viability (201T; first compound 0.006325 µM)?
**A.** Its relative viability is 0.555.

**Q.** And the relative viability (201T; first compound 0.02 µM)?
**A.** Its relative viability is 0.366.

**Q.** And the relative viability (NCI-H650; first compound 0.0002 µM)?
**A.** Its relative viability is 1.02.

**Q.** And the relative viability (NCI-H650; first compound 0.000632 µM)?
**A.** Its relative viability is 0.518.

**Q.** And the relative viability (NCI-H650; first compound 0.002 µM)?
**A.** Its relative viability is 0.315.

**Q.** And the relative viability (NCI-H650; first compound 0.006325 µM)?
**A.** The relative viability was 0.304.

**Q.** What about the relative viability (NCI-H650; first compound 0.02 µM) of the same molecule?
**A.** The relative viability was 0.212.

**Q.** What about the relative viability (NCI-H1437) of the same molecule?
**A.** The relative viability was 0.888.

— the supplement of paper PMC10307832
